Test results from patent US20260152480A1, “POLYCYCLIC COMPOUND AND USE THEREOF” (TYK MEDICINES , INC., priority 2022, published 2026).
Read-outs that look alike come from different tables or passages of the source.

Key:
[1] = test system: Human pleural mesothelioma cells NCI-H226; experiment: Proliferation inhibition assay of human pleural mesothelioma cells NCI-H226 (CCK8); assay type: cell-based; details: 72 h, 3 days incubation
Text: Experimental Example 1 Cell Anti-Proliferation Test
Proliferation Inhibition Assay of Human Pleural Mesothelioma Cells NCI-H226 by YAP-TEAD Inhibitor Compounds
Experimental materials and equipment: Human pleural mesothelioma cells NCI-H226 were purchased from Nanjing Cobioer Biosciences CO., LTD. RPMI-1640 medium (Bio-Channel), DMSO (dimethyl sulfoxide), CCK8 (WST-8) cell analysis kit (Beyotime), 0.25% EDTA-Tripsin (trypsin solution), 1×PBS (phosphate buffer, PH7.2), 96-well plate (Corning), fetal bovine serum (FBS), 10,000 U/mL penicillin-G/streptomycin, high-speed cryo-centrifuge (EPPENDORF 5810R), enzyme-linked immunoassay (Tecan Spark).
• A) Tumor cells were cultured in RPMI-1640 (containing 10% FBS and 100 U/mL penicillin-G/streptomycin) at 37° C., 5% CO^2 and saturated humidity until 80-90% density. • B) Removed the culture medium from 10 cm Petri dishes; • C) Rinsed the cells once with 10 ml 1×PBS; • D) Added 4 ml 0.25% EDTA-Tripsin into 37° C., 5% CO^2 incubator for trypsin digestion for 5 minutes, transferred to 15 ml centrifuge tube, centrifuged at 200 g for 5 minutes, discarded the supernatant to get cell precipitate; • E) Resuspend with 4 ml DMEM medium, count and adjust to 10,000 cells/ml. • F) Added cell suspension to 96-well plate with 100 μL per well volume and incubate overnight at 37° C., 5% CO^2 incubator.
• A) Preparation of gradient dilution solution of tested compounds: the test compounds were configured into 1 mM reservoir solution. Then 1.5 μl of the reservoir solution was dissolved in 1.5 ml of DMSO-free culture solution, and then a 3-fold serial gradient dilution was performed with 0.1% DMSO culture solution for a total of 9 concentrations, and the concentrations of the compounds after dilution were as follows: • 333.33 nM, 111.11 nM, 37.03 nM, 12.35 nM, 4.15 nM, 1.37 nM, 0.46 nM, 0.15 nM • B) After thorough mixing, 100 μL of culture compound solution was taken separately to replace the culture solution in the cell culture plate, with 4 replicate wells for each concentration; • C) The cells were transferred to the incubator and incubated for 3 days.
• A) Removed the cell culture plate and added 10 μl of CCK-8 (WST-8) solution per well in the biosafety cabinet. • B) Placed the cell culture plate back into the incubator and continued incubation for 3 hours. • C) Determined the absorbance value by selecting 450 nm on a TECAN enzyme-linked immunoassay detector.
The cell viability (% Cell Viability) was calculated using the following formula.
[formula] • A (dosing): absorbance of wells with cells, CCK8 solution and drug solution • A (blank): absorbance of wells with medium and CCK8 solution but no cells • A (0 dosing): absorbance of wells with cells, CCK8 solution and no drug solution • Cell viability: Cell proliferation viability or cytotoxicity viability IC50 values were obtained by curve fitting with GraphPad Prism 8 software.

[2] = test system: YAP-TEAD; experiment: Nano luciferase method to detect YAP-TEAD inhibitor activity (293T cells transfected with pGL3B-8×GTiiC-nLuc-CMV-fLuc); assay type: cell-based; details: Homo sapiens, HEK-293T, transfected 293T cells, 48 hours incubation, read-out: Nano Luciferas detection (IC50)
Text: Experimental Example 2 Nano Luciferase Method to Detect YAP-TEAD Inhibitor Activity
(1) Experimental materials and equipment: 293T cells were purchased from Nanjing Cobioer Biosciences CO., LTD. DMEM medium (high sugar, phenol red free, Bio-Channel), DMSO (dimethyl sulfoxide), Lipo6000™ transfection reagent (Beyotime), pGL3B-8×GTiiC-nLuc-CMV-fLuc plasmid, 0.25% EDTA Tripsin (trypsin solution), 1×PBS (phosphate buffer, PH7.2), 96-well white cell culture plate (PerkinElmer), Fetal Bovine Serum (FBS), 10,000 U/mL penicillin-G/streptomycin, High-speed cryo-centrifuge (EPPENDORF 5810R), 37° C. CO^2 incubator, Vi-Cell® cell counter, Envision microplate reader (PerkinElmer).
Resuscitated 293T cells were inoculated into 10 cm petri dishes and placed in a 5% CO^2 incubator at a constant temperature of 37° C. To ensure transfection efficiency, cells in the logarithmic phase (cell density of about 50%-70%) should be used.
One day before transfection, cells in logarithmic phase were digested with Trypsin-EDTA, the reaction was terminated by adding medium, and the cell suspension was made by blowing and mixing with a pipette.
The cell concentration was determined using Vi-cell and diluted to a suspension of 5*10^5 cells per milliliter. Once the cell suspension was prepared, it was gently mixed and 10 ml of liquid was added to a 10 cm petri dish. […] The cells were incubated in a 5% CO^2 incubator at 37° C. for 1 day.
Take two clean and sterile centrifuge tubes, added 750 μL of opti-MEM Medium without antibiotics and serum respectively, then added […] of plasmid (pGL3B-8×GTiiC-nLuc-CMV-fLuc) to one of the tubes and gently blown with a pipette for mixing; the other tube was added with Lipo6000 transfection reagent and gently blown with a pipette for mixing. After standing at room temperature for 5 minutes, the culture medium containing DNA was gently added to the culture medium containing Lipo6000 transfection reagent, mixed by gently inverting the centrifuge tube, and stood at room temperature for 5 minutes.
The above mixture was added evenly dropwise to a 10-cm petri dish and replaced with fresh complete medium after 6 h of incubation.
After 1 day of transfection, Trypsin EDTA was used to digest the cells, medium was added to terminate the reaction, and a cell suspension was made by blowing and mixing with a pipette.
Cell concentration was determined using Vi-cell, and diluted to a suspension of 20,000 cells per milliliter.
After the cell suspension was prepared, it was gently mixed and 100 μL was added to each well in a 96-well plate so that the density of cells to be measured was 2000 per well.
The inoculated cell culture plates were incubated in an incubator, and the compounds in concentration gradients were added after about 24 hours.
The 10 mM compound reservoir solution was diluted to 50 μM with culture medium, and 50 μM compound solution was added sequentially to the third column of the deep-well plate, and 216 μL of culture medium containing 0.5% DMSO to the fourth to eleventh columns.
Gradient dilution: 100 μL of solution was pipetted from the third column and added to the fourth column, after mixing; another 100 μL of solution was pipetted from the fourth column and added to the fifth column, and the operation was repeated until the eleventh column.
Using a multichannel pipette, 25 μL of compound solution was pipetted from the deep-well plate and added to the 96-well culture plate, and each compound was repeated four times on the 96-well plate. A concentration gradient with a maximum concentration of 10,000 nM, 1:3.16, was eventually formed on the 96-well plate.
The 96-well plate was incubated in a 5% CO^2 incubator at a constant temperature of 37° C. for 48 hours, then removed and equilibrated at room temperature for 10 minutes.
100 μL of detection reagent was added to each well and placed on a horizontal shaker at low speed for 10 minutes to fully lyse the cells. […]

[3] = reference compounds of WO2009081259A1

Row | SMILES | IC50 [1] [nM] | IC50 [2] [nM] | IC50 [1, 3] [nM] | IC50 [2, 3] [nM]
1 | CC/C=C/C(=O)N1CCC(c2cccnc2Nc2ccc(C(F)(F)F)cc2)CC1 [Compound T52] | 1000 to 5000 | 100 to 1000 |  | 
2 | C/C=C/C(=O)N1CCC(c2cccnc2Nc2ccc(C(F)(F)F)cc2)CC1 [Compound T53] | 1000 to 5000 | 100 to 1000 |  | 
3 | C=CC(=O)N1CCC(c2cc(-c3ccn(C)n3)cnc2Nc2ccc(C(F)(F)F)cc2)CC1 [Compound T54] | 100 to 1000 | ≤ 100 |  | 
4 | C=CC(=O)N1CCC(c2cc(-c3cn[nH]c3)cnc2Nc2ccc(C(F)(F)F)cc2)CC1 [Compound T55] | 100 to 1000 | 100 to 1000 |  | 
5 | C=CC(=O)N1CCC(c2cc(-c3ccccc3)cnc2Nc2ccc(C(F)(F)F)cc2)CC1 [Compound T56] | ≤ 100 | ≤ 100 |  | 
6 | C=CC(=O)N1CC2(C1)CN(c1nccnc1Nc1ccc(C(F)(F)F)cc1)C2 [Compound T57] | ≤ 100 | ≤ 100 |  | 
7 | C=CC(=O)N1CCC(c2cc(-c3ccnn3C)cnc2Nc2ccc(C(F)(F)F)cc2)CC1 [Compound T60] | 1000 to 5000 | 100 to 1000 |  | 
8 | C=CC(=O)N1CCC(c2cc(-c3cn(C)cn3)cnc2Nc2ccc(C(F)(F)F)cc2)CC1 [Compound T62] | 100 to 1000 | ≤ 100 |  | 
9 | C=CC(=O)N1CCC(c2cccnc2N(C)c2ccc(C(F)(F)F)cc2)CC1 [Compound T63] | 100 to 1000 | 100 to 1000 |  | 
10 | C=CC(=O)N1CCC(c2ccccc2Nc2ccc(C(F)(F)F)cc2)CC1 [Compound T64] | ≤ 100 | ≤ 100 |  | 
11 | C=CC(=O)N1CCC(c2cc3ccccc3nc2Nc2ccc(C(F)(F)F)cc2)CC1 [Compound T65] | 100 to 1000 | 100 to 1000 |  | 
12 | C=CC(=O)N1CCC(c2cc(OC)cnc2Oc2ccc(C(F)(F)F)cc2)CC1 [Compound T73] | 100 to 1000 | 100 to 1000 |  | 
13 | C=CC(=O)N1CCC(c2cc(C#N)cnc2Oc2ccc(C(F)(F)F)cc2)CC1 [Compound T74] | 100 to 1000 | 100 to 1000 |  | 
14 | C=CC(=O)N1CCC(c2cccnc2Oc2ccc(C(F)(F)F)cc2)C(F)(F)C1 (stereo not drawn) [Compound T77] | ≤ 100 | ≤ 100 |  | 
15 | C=CC(=O)N1C(C)CC(c2cccnc2Oc2ccc(C(F)(F)F)cc2)CC1C (stereo not drawn) [Compound T80] | ≤ 100 | ≤ 100 |  | 
16 | C=C(F)C(=O)N1CCC(c2cccnc2Oc2ccc(C(F)(F)F)cc2)C(F)(F)C1 (stereo not drawn) [Compound T81] | 100 to 1000 | 100 to 1000 |  | 
17 | C=CC(=O)N1CCC(c2nc(C(F)(F)F)cnc2Nc2ccc(C(F)(F)F)cc2)CC1 [Compound T83] | ≤ 100 | ≤ 100 |  | 
18 | C=CC(=O)N1CCC(c2nc(C)c(C)nc2Nc2ccc(C(F)(F)F)cc2)CC1 [Compound T93] | 100 to 1000 | 100 to 1000 |  | 
19 | C=CC(=O)N1CCC(c2cc(-c3ccccn3)cnc2Nc2ccc(C(F)(F)F)cc2)CC1 [Compound T95] | 1000 to 5000 | 100 to 1000 |  | 
20 | C=CC(=O)N1CCC(c2cc(-c3cccnc3)cnc2Nc2ccc(C(F)(F)F)cc2)CC1 [Compound T96] | 1000 to 5000 | 100 to 1000 |  | 
21 | C=CC(=O)N1CCC(c2cc(-c3ccncc3)cnc2Nc2ccc(C(F)(F)F)cc2)CC1 [Compound T97] | 1000 to 5000 | 100 to 1000 |  | 
22 | C=CC(=O)N1CCC(c2cc(-c3ccsc3)cnc2Nc2ccc(C(F)(F)F)cc2)CC1 [Compound T98] | 1000 to 5000 | 100 to 1000 |  | 
23 | C=CC(=O)N1CCC(c2cc(-c3cccs3)cnc2Nc2ccc(C(F)(F)F)cc2)CC1 [Compound T99] | 1000 to 5000 | 100 to 1000 |  | 
24 | Cc1cnc(Nc2ccc(C(F)(F)F)cc2)c(C2CCNCC2)c1 [Reference compound 1, reference compound] |  |  | > 5000 | > 5000
25 | Cc1ccc(C2CCNCC2)c(Nc2ccc(C(F)(F)F)cc2)n1 [Reference compound 2, reference compound] |  |  | > 5000 | > 5000
26 | FC(F)(F)c1ccc(Nc2ncccc2C2CCNCC2)cc1 [Reference compound 3, reference compound] |  |  | > 5000 | > 5000
27 | FC(F)(F)c1ccc(Nc2ncc(Cl)cc2C2CCNCC2)cc1 [Reference compound 4, reference compound] |  |  | > 5000 | > 5000
28 | FC(F)(F)c1ccc(Nc2ncc(C(F)(F)F)cc2C2CCNCC2)cc1 [Reference compound 5, reference compound] |  |  | > 5000 | > 5000
29 | FC(F)(F)c1ccc(Oc2ncccc2C2CCNCC2)cc1 [Reference compound 6, reference compound] |  |  | > 5000 | > 5000
30 | FC(F)(F)c1ccc(Oc2ncc(Cl)cc2C2CCNCC2)cc1 [Reference compound 7, reference compound] |  |  | > 5000 | > 5000
